Laboratory results from patent US12357598B2, “Treatment of neurodevelopmental disorders” (THE REGENTS OF THE UNIVERSITY OF CALIFORNIA, priority 2018, dated 2025).

Columns and labels:
Format in all cases: in vivo, mouse
ddY mice [1] = test: NORT, offspring after maternal glyphosate exposure; settings: juvenile offspring, maternal 0.095% glyphosate
Method: Novel Object Recognition Test (NORT): Mice were habituated for 10 minutes in the test box for 3 straight days. At 4th day, two objects (differing in shape and color but of similar size) were placed in the box 35.5 cm apart (symmetrically), and each animal was allowed to explore in the box for 5 minutes. The animals were considered to be exploring the object when the head of the animal was both facing and within 2.54 cm of the object or when any part of the body, except for the tail was touching the object. The time that mice spent exploring each object was recorded. After training, mice were immediately returned to their home cages, and the box and objects were cleaned with 75% ethanol, to avoid any possible instinctive odorant cues. Retention tests were carried out at one-day intervals, following the respective training. During the retention test, each mouse was reintroduced into their original test box, and one of the training objects was replaced by a novel object. The mice were then allowed to explore freely for 5 minutes, and the time spent exploring each object was recorded. Throughout the experiments, the objects were counter-balanced, in terms of their physical complexity and emotional neutrality. […]

ddY mice [2] = test: Short-chain fatty acids in fecal samples after maternal glyphosate exposure; settings: offspring after maternal glyphosate exposure
Method: Measurement of short-chain fatty acids—acetic acid, propionic acid, butyric acid, and valeric acid—in fecal samples was performed by the TechnoSuruga Laboratory, Co., Ltd. (Shizuoka, Japan).

ddY mice [3] = test: Locomotion, offspring after maternal glyphosate exposure; settings: juvenile offspring, maternal 0.095% glyphosate vs water
Method: Locomotor Activity: Both horizontal and rearing activity were monitored by an infrared ray passive sensor system (SCANET-SV10, Melquest Ltd., Toyama, Japan), and activity was integrated every minute. Individual mice were placed in activity chambers and allowed 1 hour of free exploration as spontaneous activity.

sEH = test: Western blot of sEH in brain regions of juvenile offspring after MIA
Method: Administration of poly(I:C) into pregnant mice. The schedule of poly(I:C) treatment was performed as reported previously (13,36-39). The pregnant mice were injected intraperitoneally (i.p.) for six consecutive days from E12 to E17 with poly(I:C) (5.0 mg/kg/day, Sigma-Aldrich Co. Ltd., St. Louis, MO, USA) dissolved in physiological saline, or an equivalent volume (5 ml/kg) of saline. The male offspring were separated from their mothers at wearing (P21), and mice were caged each three-five in the groups in clear polycarbonate cage (22.5×33.8×14.0 cm). Mice were housed under controlled temperatures and 12-hour light/dark cycles (lights on between 07:00-19:00 h), with ad libitum food and water.
Collection of brain samples and oxylipin profiling. […]
Western blot analysis. […] 50 μg of protein were measured using the DC protein assay kit (Bio-Rad), and incubated for 5 min at 95° C., with an equal volume of 125 mM Tris-HCl, pH6.8, 20% glycerol, 0.1% bromophenol blue, 10% β-mercaptoethanol, 4% sodium dodecyl sulfate, and subjected to sodium dodecyl sulfate polyacrylamide gel electrophoresis, using 7.5% or AnyKD mini-gels (Mini-PROTEAN® TGX™ Precast Gel; Bio-Rad, CA, USA). […] After final three washes with TBST, bands were detected using enhanced chemiluminescence (ECL) prime Western Blotting Detection system (GE Healthcare Bioscience). […]

O=C(O)CNCP(=O)(O)O [glyphosate]
novel object recognition test (NORT) (ddY mice [1]): cognitive deficits | levels of acetic acid in the fecal samples (ddY mice [2]): significantly increased | propionic acid, butyric acid, and valeric acid in fecal samples (ddY mice [2]): not different | locomotion (ddY mice [3]): not different

polyriboinosinic-polyribocytidilic acid [Poly(I:C)]
sEH protein in striatum and hippocampus (CA1, CA3, DG) (sEH; poly(I:C) 5 mg/kg/day E12-E17): no changes | levels of sEH protein in the PFC (sEH; poly(I:C) 5 mg/kg/day E12-E17, vs saline-treated mice): significantly higher
